This note sets out measurements from patent publication US6008225A, “Derivatives of antibiotic GE2270 factors C2a, D2 and E” (BioSearch Italia, S.p.A., priority 1996, dated 1999).

For assay [1], the system named is Escherichia coli SKF 12140. As to the kind of experiment: MIC by microbroth dilution, Escherichia coli. The assay is classed as cell-based. The note with it: Escherichia coli SKF 12140 (code 47); 0.01% BSA; inocula about 10^4 (1-4), about 5×10^5 cfu/ml (5, 6); 18-24 h. For orientation: In broth dilution the organism is exposed to a series of concentrations in liquid medium.

Assay [2] relates to Pseudomonas aeruginosa ATCC10145. Briefly: MIC by microbroth dilution, Pseudomonas aeruginosa. The assay is classed as cell-based. The note with it: Pseudomonas aeruginosa ATCC10145 (code 4); 0.01% BSA; inocula about 10^4 (1-4), about 5×10^5 cfu/ml (5, 6); 18-24 h.
The test system of a further assay is Strep. pneumoniae UC41. Briefly: MIC by microbroth dilution, Strep. pneumoniae. The format is cell-based, Streptococcus pneumoniae. The note with it: Strep. pneumoniae UC41 (code 44); Todd Hewitt broth; 0.01% BSA; inocula about 10^4 (1-4), about 5×10^5 cfu/ml (5, 6); 18-24 h.
Assay [3] has as its system Klebsiella pneumoniae ISM. Briefly: MIC by microbroth dilution, Klebsiella pneumoniae. The assay is classed as cell-based. The note with it: Klebsiella pneumoniae ISM (code 142); 0.01% BSA; inocula about 10^4 (1-4), about 5×10^5 cfu/ml (6); 18-24 h.
For a further assay, the system named is Staph. aureus Smith. As to the kind of experiment: MIC by microbroth dilution, Staph. aureus Smith. The assay is classed as cell-based, Staphylococcus aureus. The note with it: Staph. aureus Smith (code 819); 0.01% BSA; inocula about 10^4 (1-4), about 5×10^5 cfu/ml (5, 6); 18-24 h.
Assay [4] deals with Enterococcus faecalis ATCC 6919. Briefly: MIC by microbroth dilution, Enterococcus faecalis. The format is cell-based. The note with it: Enterococcus faecalis ATCC 6919 (code 149); 0.01% BSA; inocula about 10^4 (1-4), about 5×10^5 cfu/ml (5, 6); 18-24 h.
Assay [5] deals with Staph. haemolyticus clin. is. Briefly: MIC by microbroth dilution, Staph. haemolyticus. The note with it: Staph. haemolyticus clin. is. (code 602); 0.01% BSA; inocula about 10^4 (1-4), about 5×10^5 cfu/ml (5, 6); 18-24 h. The format is cell-based, Staphylococcus haemolyticus.
Assay [6] concerns Proteus vulgaris X19H ATCC881. As to the kind of experiment: MIC by microbroth dilution, Proteus vulgaris. The format is cell-based. The note with it: Proteus vulgaris X19H ATCC881 (code 79); 0.01% BSA; inocula about 10^4 (1-4), about 5×10^5 cfu/ml (5, 6); 18-24 h.
In assay [7] the test system is Staph. epidermidis ATCC 12228. As to the kind of experiment: MIC by microbroth dilution, Staph. epidermidis. The assay is classed as cell-based, Staphylococcus epidermidis. The note with it: Staph. epidermidis ATCC 12228 (code 147); 0.01% BSA; inocula about 10^4 (1-4), about 5×10^5 cfu/ml (5, 6); 18-24 h.
Assay [8] concerns Propionibacterium acnes ATCC6919. As to the kind of experiment: MIC by microbroth dilution, Propionibacterium acnes. The format is cell-based. The note with it: Propionibacterium acnes ATCC6919 (code 1014); anaerobe, 48 h; 0.01% BSA; inocula about 10^5 (1-4), about 5×10^5 cfu/ml (5, 6).
Another assay has as its system Staph. aureus Tour. Briefly: MIC by microbroth dilution, Staph. aureus Tour. The format is cell-based, Staphylococcus aureus. The note with it: Staph. aureus Tour (code 165), 0.01% BSA, read 18-24 h.
The test system of the next assay is Strep. pyogenes C203. Briefly: MIC by microbroth dilution, Strep. pyogenes. The format is cell-based, Streptococcus pyogenes. The note with it: Strep. pyogenes C203 (code 49); Todd Hewitt broth; 0.01% BSA; inocula about 10^4 (1-4), about 5×10^5 cfu/ml (5, 6); 18-24 h.
For assay [9], the system named is Haemophilus influenzae type b ATCC19418. As to the kind of experiment: MIC by microbroth dilution, Haemophilus influenzae. The assay is classed as cell-based. The note with it: Haemophilus influenzae type b ATCC19418 (code 970); 5% CO2, 48 h; 0.01% BSA; inocula about 10^4 (1-4), about 5×10^5 cfu/ml (5, 6).
Assay [10] has as its system Clostridium perfringens ISS30543. The assay is classed as cell-based. The note with it: Clostridium perfringens ISS30543 (code 290); anaerobe, 48 h; 0.01% BSA; inocula about 10^5 (1-4), about 5×10^5 cfu/ml (5, 6).
Assay [11] concerns Neisseria gonorrhoeae ISM 68/126. Briefly: MIC by microbroth dilution, Neisseria gonorrhoeae. The format is cell-based. The note with it: Neisseria gonorrhoeae ISM 68/126 (code 997); 5% CO2, 48 h; 0.01% BSA; inocula about 10^4 (1-4), about 5×10^5 cfu/ml (5, 6).
In assay [12] the test system is Bacteroides fragilis ATCC 25285. Briefly: MIC by microbroth dilution, Bacteroides fragilis. The assay is classed as cell-based. The note with it: Bacteroides fragilis ATCC 25285 (code 1011); anaerobe, 48 h; 0.01% BSA; inocula about 10^5 (1-4), about 5×10^5 cfu/ml (5, 6).
The mark [13] stands for this setting: inocula about 10^4 cfu/ml (compounds 1-4), about 5×10^5 cfu/ml (5, 6).

On to `CCSCc1sc2nc1C(=O)NCC(=O)NC(C(O)c1ccccc1)c1nc(cs1)-c1nc(cs1)-c1nc(-c3nc(C4=N[C@H](C(=O)N5CCC[C@H]5C(N)=O)CO4)cs3)ccc1-c1nc(cs1)C(=O)N[C@@H](CC(=O)NC)c1nc(c(C)s1)C(=O)N[C@H]2C(C)C` (stereo partly drawn) [Compound 4], for which the “MIC of the compounds” value was more than 128 µg/mL in [1]; more than 128 µg/mL in [2]; 0.5 µg/mL in the assay on Strep. pneumoniae UC41; more than 128 µg/mL in assay [3]; 0.25 µg/mL in the assay with Staph. aureus Smith; 0.06 µg/mL in assay [4]. Further, the “MIC of the compounds” value in [5] is 8 µg/mL; in [6] it was more than 128 µg/mL; in [7] it was 4 µg/mL; in [8], 0.004 µg/mL; in the assay on Staph. aureus Tour (setting [13]) it was 0.13 µg/mL; in the assay with Strep. pyogenes C203, 64 µg/mL. Besides, the “MIC of the compounds” value in [9] was more than 128 µg/mL; in [10] it was 0.016 µg/mL; in assay [11] it was more than 128 µg/mL; in assay [12], more than 128 µg/mL.
As for `CCN(CC)Cc1sc2nc1C(=O)NCC(=O)NC(C(O)c1ccccc1)c1nc(cs1)-c1nc(cs1)-c1nc(-c3nc(C4=NC(C(=O)N5CCCC5C(N)=O)CO4)cs3)ccc1-c1nc(cs1)C(=O)NC(CC(=O)NC)c1nc(c(C)s1)C(=O)NC2C(C)C` (stereo not drawn) [Compound 1], the “MIC of the compounds” value was more than 128 µg/mL in assay [1]; more than 128 µg/mL in assay [2]; 1 µg/mL in the assay on Strep. pneumoniae UC41; more than 128 µg/mL in assay [3]; 0.13 µg/mL in the assay on Staph. aureus Smith; 0.06 µg/mL in assay [4]. The “MIC of the compounds” value is 0.13 µg/mL in assay [5]; more than 128 µg/mL in [6]; 0.03 µg/mL in assay [8]; 0.25 µg/mL in the assay on Staph. aureus Tour (10^6 cfu/ml); 0.5 µg/mL in the assay with Staph. aureus Tour (30% b.s.); 0.13 µg/mL with Staph. aureus Tour (setting [13]). For the same molecule, the “MIC of the compounds” value is 4 µg/mL in the assay with Strep. pyogenes C203; more than 128 µg/mL in assay [9]; 0.13 µg/mL in assay [10]; more than 128 µg/mL in assay [11]; 64 µg/mL in [12].
Turning to `CCN(CC)CCNC(=O)[C@@H]1CCCN1C(=O)[C@@H]1COC(c2csc(-c3ccc4c(n3)-c3csc(n3)-c3csc(n3)C(C(O)c3ccccc3)NC(=O)CNC(=O)c3nc(sc3CN(C)C)[C@H](C(C)C)NC(=O)c3nc(sc3C)[C@H](CC(=O)NC)NC(=O)c3csc-4n3)n2)=N1` (stereo partly drawn) [Compound 6], the “MIC of the compounds” value in assay [1] was more than 128 µg/mL; in assay [2], more than 128 µg/mL; with Strep. pneumoniae UC41, 0.13 µg/mL; in [3], more than 128 µg/mL; in the assay with Staph. aureus Smith it was 0.13 µg/mL; in [4], 0.13 µg/mL. In addition, the “MIC of the compounds” value is 0.5 µg/mL in assay [5]; more than 128 µg/mL in assay [6]; 0.5 µg/mL in assay [7]; 16 µg/mL in assay [8]; 0.13 µg/mL with Staph. aureus Tour (setting [13]); 0.13 µg/mL in the assay on Strep. pyogenes C203. Moreover, the “MIC of the compounds” value in [9] is more than 128 µg/mL; in [10], 0.06 µg/mL; in assay [11], 16 µg/mL; in assay [12], 64 µg/mL.
`CNC(=O)CC1NC(=O)c2csc(n2)-c2ccc(-c3nc(C4=NC(C(=O)N5CCCC5C(N)=O)CO4)cs3)nc2-c2csc(n2)-c2csc(n2)C(C(O)c2ccccc2)NC(=O)CNC(=O)c2nc(sc2CN(C)C)C(C(C)C)NC(=O)c2nc1sc2C` (stereo not drawn) [Compound 2]: the “MIC of the compounds” value in assay [1] is more than 128 µg/mL; in assay [2], more than 128 µg/mL; with Strep. pneumoniae UC41, 0.13 µg/mL; in [3], more than 128 µg/mL; in the assay with Staph. aureus Smith, 0.13 µg/mL; in assay [4], 0.06 µg/mL. Moreover, the “MIC of the compounds” value in assay [5] is 0.25 µg/mL; in [6] it was more than 128 µg/mL; in assay [7], 0.13 µg/mL; in [8], 0.06 µg/mL; in the assay on Staph. aureus Tour (10^6 cfu/ml), 0.13 µg/mL; in the assay with Staph. aureus Tour (30% b.s.), 0.13 µg/mL. Moreover, the “MIC of the compounds” value was found to be 0.13 µg/mL in the assay on Staph. aureus Tour (setting [13]); 0.5 µg/mL with Strep. pyogenes C203; 8 µg/mL in assay [9]; 0.06 µg/mL in [10]; 4 µg/mL in assay [11]; 128 µg/mL in assay [12].
Regarding `CCN(CC)CCNC(=O)[C@@H]1CCCN1C(=O)[C@@H]1COC(c2csc(-c3ccc4c(n3)-c3csc(n3)-c3csc(n3)C(C(O)c3ccccc3)NC(=O)CNC(=O)c3nc(sc3CO)[C@H](C(C)C)NC(=O)c3nc(sc3C)[C@H](CC(=O)NC)NC(=O)c3csc-4n3)n2)=N1` (stereo partly drawn) [Compound 5], the “MIC of the compounds” value was more than 128 µg/mL in [1]; more than 128 µg/mL in assay [2]; 0.13 µg/mL with Strep. pneumoniae UC41; 0.13 µg/mL in the assay on Staph. aureus Smith; 0.06 µg/mL in assay [4]; 0.13 µg/mL in [5]. The “MIC of the compounds” value in [6] is more than 128 µg/mL; in [7], 0.13 µg/mL; in [8], 0.03 µg/mL; with Staph. aureus Tour (10^6 cfu/ml) it was 0.13 µg/mL; with Staph. aureus Tour (30% b.s.) it was 0.25 µg/mL; in the assay on Staph. aureus Tour (setting [13]), 0.06 µg/mL. In addition, the “MIC of the compounds” value in the assay on Strep. pyogenes C203 stood at 0.13 µg/mL; in [9] it was 8 µg/mL; in [10] it was 0.06 µg/mL; in [11] it was 32 µg/mL; in assay [12], 32 µg/mL.
For the molecule `CNC(=O)C[C@@H]1NC(=O)c2csc(n2)-c2ccc(-c3nc(C4=N[C@H](C(=O)N5CCC[C@H]5C(N)=O)CO4)cs3)nc2-c2csc(n2)-c2csc(n2)C(C(O)c2ccccc2)NC(=O)CNC(=O)c2nc(sc2CN(C)CCN(C)C)[C@H](C(C)C)NC(=O)c2nc1sc2C` (stereo partly drawn) [Compound 3], the “MIC of the compounds” value was more than 128 µg/mL in assay [1]; more than 128 µg/mL in [2]; 1 µg/mL with Strep. pneumoniae UC41; more than 128 µg/mL in assay [3]; 1 µg/mL with Staph. aureus Smith; 1 µg/mL in assay [4]. In addition, the “MIC of the compounds” value in assay [5] was 8 µg/mL; in assay [6] it was more than 128 µg/mL; in [7], 8 µg/mL; in assay [8], 0.5 µg/mL; in the assay on Staph. aureus Tour (10^6 cfu/ml) it was 4 µg/mL; in the assay on Staph. aureus Tour (30% b.s.) it was 1 µg/mL. The “MIC of the compounds” value is 1 µg/mL in the assay with Staph. aureus Tour (setting [13]); 2 µg/mL in the assay on Strep. pyogenes C203; more than 128 µg/mL in [9]; 4 µg/mL in assay [10]; more than 128 µg/mL in [11]; more than 128 µg/mL in assay [12].
